ChEMBL document CHEMBL1201862, “PubChem BioAssay data set” (2004)
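Assay format: 96-well plates, 48-hour exposure. Abbreviation: GI50, concentration required for 50% inhibition of growth.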 Activity calls are given as the source filed them. Cut-off read from the data, not from the text of the source: active = GI50 up to about 1.1 µM and inactive = higher.

What was measured:
Assay in all cases: inhibition of tumour cell growth, NCI panel, 48 h
[1] = test system: MCF7
[2] = test system: NCI-H23
[3] = test system: HT-29
[4] = test system: HCC 2998
[5] = test system: SNB-75
[6] = test system: SK-OV-3
[7] = test system: UO-31
[8] = test system: A549
[9] = test system: SF-539
[10] = test system: CAKI-1
[11] = test system: 786-0
[12] = test system: NCI-H226
[13] = test system: NCI-H460
[14] = test system: DU-145
[15] = test system: UACC-257
[16] = test system: MDA-MB-435
[17] = test system: HCT-116
[18] = test system: OVCAR-4
[19] = test system: MOLT-4
[20] = test system: CCRF-CEM

Measured: GI50

Cc1ccc(/C(C#N)=C/c2cccc([N+](=O)[O-])c2)cc1
inactive: [1] > 100 µM | [2] > 100 µM | [3] > 100 µM | [4] > 100 µM | [5] 19.5 µM | [6] 61.9 µM | [7] 45.3 µM | [8] > 100 µM | [9] 46.5 µM | [10] > 100 µM | [11] 31.8 µM | [12] > 100 µM | [13] > 100 µM | [14] 98.6 µM | [15] > 100 µM | [16] > 100 µM | [17] 76.2 µM | [18] 57.8 µM

COc1cc(C(=O)O)c([N+](=O)[O-])c(OC)c1OC
inactive: [19] > 100 µM | [1] > 100 µM | [2] > 100 µM | [3] > 100 µM | [4] > 100 µM | [5] > 100 µM | [6] > 100 µM | [7] > 100 µM | [8] > 100 µM | [9] > 100 µM | [10] > 100 µM | [11] > 100 µM | [12] > 100 µM | [13] > 100 µM | [14] > 100 µM | [15] > 100 µM | [16] > 100 µM | [17] > 100 µM | [18] > 100 µM

OCCCCn1cc(Cn2ncc3c(O)ncnc32)nn1
inactive: [19] > 100 µM | [1] > 100 µM | [2] > 100 µM | [3] > 100 µM | [4] > 100 µM | [6] > 100 µM | [7] > 100 µM | [8] > 100 µM | [9] > 100 µM | [10] > 100 µM | [11] > 100 µM | [12] > 100 µM | [20] > 100 µM | [13] > 100 µM | [14] > 100 µM | [15] > 100 µM | [16] > 100 µM | [17] > 100 µM | [18] > 100 µM

O=c1cc(-c2ccccc2)c2ccc(O)c(CN(CCCl)CCCl)c2o1
inactive: [19] 5.75 µM | [1] 17.2 µM | [2] 19.5 µM | [3] 10.3 µM | [4] 12.3 µM | [5] 15.7 µM | [7] 14.4 µM | [8] 16.1 µM | [9] 20.3 µM | [10] 15.5 µM | [11] 18.5 µM | [12] 17.9 µM | [20] 3.07 µM | [13] 17.8 µM | [14] 33.6 µM | [15] 16.4 µM | [16] 19.9 µM | [17] 19.1 µM | [18] 34.8 µM

CCCCSc1n/c(=C\c2ccc(N(C)C)cc2)c2nnnn12
inactive: [19] > 100 µM | [1] > 100 µM | [2] > 100 µM | [3] > 100 µM | [4] > 100 µM | [5] > 100 µM | [6] > 100 µM | [7] 73.8 µM | [8] > 100 µM | [9] > 100 µM | [10] > 100 µM | [11] > 100 µM | [12] > 100 µM | [13] > 100 µM | [14] > 100 µM | [15] > 100 µM | [16] > 100 µM | [17] > 100 µM | [18] > 100 µM

CC1=NN(c2nc(N)nc(-c3cc4ccccc4oc3=N)n2)C(C)(C)C1
inactive: [19] 12.9 µM | [1] 27.7 µM | [2] 16.1 µM | [3] 19.7 µM | [4] 15 µM | [6] 18.8 µM | [7] 19.1 µM | [8] 19.5 µM | [9] 19.5 µM | [10] 17.3 µM | [11] 15.3 µM | [12] 14.7 µM | [20] 20.7 µM | [13] 17.3 µM | [14] 20.9 µM | [15] 16.7 µM | [16] 19.7 µM | [17] 19.6 µM | [18] 17.4 µM

CC1=NN(C(=O)c2ccccc2O)C(c2ccccc2Cl)C1C(=O)Nc1ccccc1 (stereo not drawn)
active: [19] < 0.0302 µM | [1] 0.0387 µM | [2] < 0.0378 µM | [7] < 0.0226 µM | [8] < 0.0158 µM | [9] < 0.0298 µM | [10] 0.159 µM | [11] < 0.0457 µM | [12] 0.0614 µM | [20] 0.0288 µM | [13] 0.0964 µM | [14] < 0.0291 µM | [15] 0.283 µM | [16] < 0.0195 µM | [17] < 0.0196 µM | [18] 0.098 µM
inactive: [3] 2.96 µM | [4] 2.84 µM | [6] 10.9 µM

CC(C)(C)NCC(O)c1ccc(O)c(CO)n1 (stereo not drawn)
inactive: [19] > 100 µM | [1] > 100 µM | [2] > 100 µM | [3] > 100 µM | [4] > 100 µM | [5] > 100 µM | [6] > 100 µM | [7] > 100 µM | [8] > 100 µM | [9] > 100 µM | [10] > 100 µM | [11] > 100 µM | [12] > 100 µM | [13] > 100 µM | [14] > 100 µM | [15] > 100 µM | [16] > 100 µM | [17] > 100 µM | [18] > 100 µM

C=C(C)[C@@]1(O)CCCC[C@@H]1CC(Sc1ccccc1)Sc1ccccc1
inactive: [19] 9.08 µM | [1] 24.7 µM | [2] 14.2 µM | [3] 18.2 µM | [4] 16.5 µM | [5] 16 µM | [6] 19.6 µM | [7] 16 µM | [8] 13.9 µM | [10] 14.9 µM | [11] 17.8 µM | [12] 16.3 µM | [20] 23.4 µM | [13] 13.9 µM | [14] 15.7 µM | [15] 20.2 µM | [16] 16.2 µM | [17] 12.5 µM | [18] 13.6 µM

O=C1CC(CC(OCc2ccccc2)C(COCc2ccccc2)OCc2ccccc2)CC(=O)N1 (stereo not drawn)
inactive: [19] 24.3 µM | [1] 33.1 µM | [2] 43.1 µM | [3] 24.7 µM | [4] 36.6 µM | [5] 52.7 µM | [7] 16 µM | [8] 27.4 µM | [9] 60.3 µM | [10] 19.7 µM | [11] 32.4 µM | [12] 44.1 µM | [20] 37.1 µM | [13] 32.4 µM | [14] 69.3 µM | [15] 27.4 µM | [16] 29.6 µM | [17] 23.6 µM | [18] 38.4 µM

O=c1n(N=[S+]([O-])(c2ccccc2)c2ccccc2)c(=O)n2n1C1C=CC2CC1
inactive: [19] > 100 µM | [1] > 100 µM | [2] > 100 µM | [3] > 100 µM | [5] > 100 µM | [6] > 100 µM | [7] > 100 µM | [8] > 100 µM | [9] > 100 µM | [10] > 100 µM | [11] > 100 µM | [12] > 100 µM | [20] > 100 µM | [13] > 100 µM | [14] > 100 µM | [15] > 100 µM | [16] > 100 µM | [17] > 100 µM

O=C(CSc1nc2ccc(I)cc2c(=O)n1Cc1ccccc1)NN1C(=O)CCC1=O
inactive: [19] 42.1 µM | [1] 41.5 µM | [2] 17.6 µM | [3] 48.6 µM | [4] 77.4 µM | [5] 36.3 µM | [6] 52 µM | [8] 49.4 µM | [9] 61.4 µM | [10] 1.65 µM | [11] 52.7 µM | [12] 27.3 µM | [20] 34.5 µM | [13] 63.8 µM | [14] > 100 µM | [15] 45 µM | [16] 64.1 µM | [17] 43.3 µM | [18] 21.5 µM

Nc1cc2c(nc3c4ccccc4c(N)cc3[n+]2-c2cccc3ccccc23)c2ccccc12.Nc1cc2c(nc3c4ccccc4ccc3[n+]2-c2cccc3ccccc23)c2ccccc12
active: [19] 0.75 µM | [1] 0.507 µM | [20] 0.229 µM | [13] 0.377 µM
inactive: [2] 1.15 µM | [3] 1.36 µM | [5] 1.68 µM | [6] 4.32 µM | [7] 2.59 µM | [8] 1.39 µM | [9] 7.74 µM | [10] 3.66 µM | [11] 1.21 µM | [12] 12.2 µM | [14] 3.03 µM | [15] 1.15 µM | [16] 1.45 µM | [17] 1.67 µM | [18] 1.71 µM

CNC(=O)OCc1nc(N=[N+]=[N-])n(C)c1COC(=O)NC
inactive: [19] 26 µM | [1] 38 µM | [2] 54.2 µM | [3] 58.3 µM | [4] 38.4 µM | [5] 49 µM | [7] > 10 µM | [8] 61.7 µM | [9] 54.5 µM | [10] 20.7 µM | [11] > 10 µM | [12] > 100 µM | [20] 32.1 µM | [13] 29.6 µM | [14] 49.8 µM | [15] > 100 µM | [16] 37.2 µM | [17] 46.2 µM | [18] 37.1 µM

O=CN1CCN(C(=O)c2ccc(Cl)cc2Cl)C1=S
inactive: [19] > 100 µM | [1] 34.6 µM | [2] > 100 µM | [3] > 100 µM | [4] > 100 µM | [5] 21 µM | [6] > 100 µM | [8] 67.3 µM | [9] > 100 µM | [10] 41.1 µM | [11] 30.7 µM | [12] > 100 µM | [20] 27.5 µM | [13] > 100 µM | [14] 84.5 µM | [15] > 100 µM | [16] 43.9 µM | [17] > 100 µM | [18] > 100 µM
